# How the values were obtained:
# [1] = tested on: HSV-1 (strain F); assay: Infectivity of HSV-1 (strain F) to Vero cells after treatment with SLS or DS (plaque forming units); assay type: cell-based, Herpes simplex virus type-1; conditions: independent of whether the virus was pretreated, FIG. 1, read-out: concentration giving a loss of 50% of the viral infectivity
# Procedure: The effect of pretreating different strains of herpes viruses with SLS or DS on their viral infectivities to susceptible cells has been evaluated. In brief, cells were seeded in 24 well-plates (Costar, Montreal, QC, Canada). Prior to infection, the virus was either suspended in culture medium or phosphate buffered saline (PBS), or incubated with different concentrations of SLS in PBS for 1 h at 37° C. At confluency, cells were incubated with viral suspensions by centrifuging the plates (750× g for 45 min at 20° C.) to allow virus adsorption. Virus was removed and cell sheets were then overlaid with 0.5 ml of 0.6% agarose Seaplaque (Marine Colloids, Rockland, Md.) prepared in appropriate culture medium. The plates were incubated for 2 days at 37° C. Cells were then fixed with 10% formaldehyde in PBS for 20 min, washed with deionized water and stained with 0.05% methylene blue. Viral infectivity was evaluated via the determination of Plaque Forming Units (PFU).
# HSV-1 (strain F) infectivity was reduced to 21% when viral particles were pretreated with 25 μM SLS. The infectivities of all HSV-2 strains were between 50 to 70% following preincubation with 25 μM SLS. A complete loss of the infectivity of all strains tested were obtained following pretreatment of the viruses with 50 μM SLS.
# When SLS was immediately added to Vero cells following their infection, the loss of viral infectivity was less dramatic compared to that obtained for virus pretreated for 1 h at 37° C. with the same SLS concentrations. […] Similarly, pretreatment of the HSV-2 (strain 333) with SLS also influenced the infectivity of this strain (data not shown). On the other hand, DS reduces the infectivity of the virus independent of whether the virus was pretreated with DS.
# [2] = tested on: HSV-1 (strain F); assay: Murine cutaneous infection model, HSV-1 pretreated with SLS or DS; assay type: in vivo, hairless mice (SKH1)
# Procedure: The effect of pretreating HSV-1 (strain F) with SLS on viral infectivity has also been evaluated in a murine cutaneous infection model. Female hairless mice (SKH1; Charles River Breeding Laboratories Inc., St-Constant, QC, Canada), 5–6 weeks old were used throughout this study. […] Mice were anesthetized by intraperitoneal injection of a mixture containing 70 mg/kg ketamine hydrochloride (Rogarsetic* injection USP; Rogar/STB Inc. Montreal, QC, Canada) and 11.5 mg/kg xylazine (Rompun®; Miles Canada Inc., Etobicoke, ON, Canada). The virus was inoculated on the lateral side of the body in the left lumbar skin area. The skin was scratched six times in a crossed-hatched pattern with a 27-gauge needle held vertically. Viral suspension (50 μl) was deposited onto the scarified area and rubbed for 10 to 15 see with a cotton tipped applicator saturated with EMEM+2% FBS or SLS or DS solutions. The scarified area was protected with a corn cushion which was maintained on the mice body with surgical tape. The porous inner wall of the aperture of the corn cushion was impermeabilized with tissue adhesive prior to use to prevent absorption of the drug. The aperture of the corn cushion was also closed with surgical tape. Mice were then returned to their cages and observed twice daily.
# In infected untreated mice, no pathological signs of cutaneous infection were visible during the first four days following infection and only the scarified area remained appearent. On day 5, herpetic skin lesions began to appear in some mice in the form of small vesicles distant from the inoculation site. On day 6, almost all untreated mice developed herpetic skin lesions in the form of a 4–5 mm wide band extending from the spine to the ventral midline of the infected dermatome similar to zoster-like infections. Maximal mean lesion score was observed on day 8. Mean lesion score decreased thereafter from day 11 to day 15 because of spontaneous regression of cutaneous lesions in some mice. […] Of prime importance, all mice infected with the virus pretreated with 100 μM SLS survived the infection (data not shown).
# [3] = tested on: Vero cells; assay: Viability of Vero cells exposed to SLS or DS (MTS test); conditions: Vero cells exposed 1 h at 37° C. to concentrations as in FIG. 1 and Table 1; data not shown
# [4] = tested on: HSV-1 (strain F); assay: Efficacy of SLS or DS added in overlay after infection against HSV-1 (strain F) in Vero cells (PFU); assay type: cell-based, Herpes simplex virus type-1; conditions: cells infected 2 h, compound in overlay for 2 days, FIG. 2
# Procedure: In brief, cells were infected with the virus for 2 h at 37° C. Afterwards, supernatant was removed and cells were overlaid with 0.5 ml of EMEM +2% FBS containing 0.6% agarose Seaplaque and SLS or DS at the desired concentration. Plates were then incubated for 2 days at 37° C. in a 5% CO2 atmosphere. Cells were fixed with 10% formaldehyde in PBS for 20 min, washed with deionized water and stained with 0.05% methylene blue. Viral infectivity was evaluated following the determination of PFU.
# [5] = tested on: HSV-1 (strain F); assay: In vitro susceptibility of HSV-1 to combination of foscarnet and SLS in Vero cells (PFU); assay type: cell-based, Herpes simplex virus type-1; conditions: combinations of different concentrations in overlay, 2 days, FIG. 22
# Procedure: The effect of SLS on the efficacy of foscamet against HSV-1 (strain F) was investigated in Vero cells. In brief, cells were seeded in 24 well-plates (Costar, Montreal, QC, Canada) and were incubated with HSV-1 strain F (approximately 100 PFU/ml) for 2 h at 37° C. to allow virus adsorption. Afterwards, virus was removed and cells overlaid with 0.5 ml of 0.6% agarose Seaplaque (Marine Colloids, Rockland, Mass.) containing different concentrations of foscarnet, SLS or combination of both compounds. The plates were incubated for 2 days at 37° C. Cells were then fixed with 10% formaldehyde in PBS for 20 min, washed with deionized water and stained with 0.05% methylene blue. Virus susceptibility was evaluated via the determination of PFU.
# [6] = tested on: HSV-1 (strain F); assay: Treatment of HSV-1 cutaneous lesions in mice with topical formulations; assay type: in vivo, hairless mice (SKH1); conditions: treatment started 24 h after infection, 3 times daily for 4 days
# Procedure: For the purpose of testing the efficacy of our gel formulations in a murine model of cutaneous HSV-1 infection, the solutions were prepared within a phosphate buffer (0.2 M, pH 6) to be compatible with the pH of the skin.
# The efficacy of our different topical formulations has been evaluated in a murine model of cutaneous HSV-1 infection. In brief, female hairless mice (SKH1; Charles River Breeding Laboratories Inc., St-Constant, QC, Canada), 5–7 weeks old were anesthetized by intraperitoneal injection of a mixture containing 70 mg/kg ketamine hydrochloride and 11.5 mg/kg xylazine. The virus was inoculated on the lateral side of the body in the left lumbar skin area. The skin was scratched six times with a 27 gauge needle held vertically in a crossed-hatched pattern. Fifty μl of viral suspension (HSV-1 strain F, 1.5×10^6 plaque forming units (PFU)/ml) was rubbed for 10 to 15 sec on the scarified skin area with a cotton tipped applicator saturated with culture medium [minimum essential medium (MEM) supplemented with 100 U/ml of penicillin-streptomycin, 2 mM L-glutamine and 2% fetal bovine serum (MEM-E +2% FBS)]. The scarified area was protected with a corn cushion which was maintained on the mice body with surgical tape. […]
# Different treatment regimens were evaluated in this study. […] The efficacy of the different formulations was evaluated using lesion scores and survival.
# [7] = In vivo skin penetration of antivirals (distribution in skin tissues); parameters: species or system mice
# [8] = Concentration of acyclovir in plasma after topical application; assay type: in vivo; conditions: drug incorporated within the poloxamer matrix; infected vs uninfected mice; 24 h
molecule,measurement,setting,value
dextran sulfate [DS],IC50,[1],~1 nM
same,mean lesion score,[2]; virus pretreated with 0.25 nM DS,partial reduction
same,protection against the development of herpetic lesions,[2]; virus pretreated with either 1 or 10 nM DS,better protection
same,"cytotoxicity (viability, MTS test)",[3],No signs of cytotoxicity
same,concentration with complete efficacy against viral replication,[4],20 µM
O=C(O)P(=O)(O)O [foscarnet],efficacy of foscarnet against HSV-1 (strain F) in the presence of SLS,[5],enhanced
same,mice that survived the infection,[6]; 0.5% foscarnet in solution,Half
same,mean lesion score,[6]; solution of 0.5% foscarnet,large reduction
same,concentration in the epidermis and dermis,"[7]; infected mice, drug incorporated within the poloxamer vs phosphate buffer, 24 h",significantly higher
same,amounts found in the underlying epidermis and dermis,"[7]; uninfected mice, irrespective of the carrier, 24 h after topical application",No or negligible amounts
Nc1nc2c(ncn2COCCO)c(=O)[nH]1 [acyclovir],increase of concentration in plasma by infection,[8],4 fold
same,effect of infection on amount in the epidermis,"[7]; infected vs uninfected mice, 24 h",did not significantly increase
same,concentration in the epidermis and dermis compared with that of foscarnet,"[7]; uninfected and infected mice, irrespective of the carrier, 24 h",higher
